# Key:
# Type in all cases: in vivo, human
# [1] = tested on: ALS patients
# Protocol: Three fasting ALS patients (men aged 37 and 60 and a person; duration of disease three-quarters of a year, one and three years, respectively) were each given an intravenous infusion of TRH in which the dose increased in seven steps from 0.5 to 19 mg/minute over sixty to eighty minutes (total dose 320, 432 and 500 mg). The two men had major spasticity from upper motor neuron involvement and weakness from lower motor neuron involvement. […] Shivering, tachypnoea and sweating increased further with rising dosage, and in the two men the infusion was stopped at 19 mg/minute, after 320 and 432 mg total, because of tachypnoea (40-45 breaths per minute) and vigorous shivering. There also was a transient increase in pulse rate (10-15 beats per minute). The men experienced sensations of coolness or warmth of the anterior lower chest and abdomen. One of the men felt "bad all over" at 19 mg/minute. […] At that time, a spinal lumbar puncture was performed to obtain cerebrospinal fluid for analysis as hereinafter described. The patient had no spasticity, only weakness from lower motor neuron involvement. […] Their infusion was stopped when the drug supply was depleted (at 500 mg total dose). The dosage was not stopped because of side-effects of TRH. […] Experience with the additional patients confirmed the observation that there is more shivering side-effect in the patients with more spasticity.
# (§1) There were several control aspects of the TRH studies. […] The patients given subcutaneous TRH had treatments interspersed with saline placebo injections. […] The time course of response was not known before the study and, in fact, it was expected that the onset would be later and the duration of response longer than was actually found. Different patients responded to different doses of TRH, and the sex difference in response (woman apparently less responsive) was not expected. […] There were three observers, one unaware of the infusion status. In addition, clinical examinations of all patients of Examples III-VII were videotaped and later reviewed by several observers.
# [2] = tested on: ALS patients; remark: listed apart in the source
# Protocol: As shown in Examples I-V, intravenous infusion of thyrotropin-releasing hormone improves weakness and spasticity from lower motor neuron and upper motor neuron involvement in patients with amyotrophic lateral sclerosis and proximal spinal muscular atrophy. In an additional study, forty-one ALS patients were treated with 461 days of subcutaneous TRH administered 75-150 mg once daily or 75 mg twice daily. The subcutaneous doses were sometimes administered by patients or spouses. Included were all forms of ALS, and all patients were videotaped pre- and post-treatment. […] Saline injections produced no responses. The previously-noted lesser benefit and side-effects in females was less evident.
# Benefit and side-effects of TRH administered subcutaneously were qualitatively and quantitatively similar to those of intravenous TRH described in Examples III and IV. […] Response times were somewhat different.
# as §1
# In each of the foregoing Examples, the TRH was administered in a normal saline solution containing 100 mg/ml of TRH. The pH of the solution was not adjusted. This particular carrier and strength was selected for its ready availability, the convenience in calculating dosages administered and its similarity to the placebo solution, and additional carriers may be employed as desired. Timed-release carriers would be particularly advantageous, and are within the scope of the invention.
# [3] = tested on: non-ALS patients; assay: Intravenous and subcutaneous TRH in non-ALS patients with lower or upper motor neuron abnormality (Example VII); conditions: i.v. and s.c., seven non-ALS patients
# Description: The dosage, benefits and side-effects were essentially similar to those described in Examples II, V and VI.
# [4] = tested on: amyotrophic lateral sclerosis patients; assay: Effect of TRH on chronic joint pain in ALS patients (Example VIII); conditions: after TRH treatment
# Description: In untreated amyotrophic lateral sclerosis patients, especially in more advanced stages of the disease, aching of joints is common, (e.g., in a "frozen shoulder" or painful hip). Often, the pain is so severe as to impair sleep. […] The reduction of pain was clearly appreciated when the patients were awake, and it also allowed much more restful nights without their being awakened frequently by pain. […] A logical extension of this observation is that pain of many causes, including other forms of arthritic pain, might be lessened by TRH, or an analog, active derivative or analog of an active derivative of TRH.
# [5] = tested on: ALS patients; assay: Transient autorefractory effect, subcutaneous TRH in ALS patients
# Description: Possible mechanisms for autorefractoriness, presumably involving the lower motor neuron soma/dendrites and/or neurons afferent thereto, include: […] In normal animals, repeated micropipetting of TRH near lower motor neurons has been shown by others to cause a similar prolonged unresponsiveness. The mechanism of autorefractoriness may be, in general, related to the excellent clinical anti-spasticity benefits of TRH, and non-excitatory TRH analogs may be employed within the spirit of the invention to enhance this type of clinical improvement.
smiles,measurement,setting,value
"NC(=O)[C@@H]1CCCN1C(=O)[C@H](Cc1cnc[nH]1)NC(=O)[C@@H]1CCC(=O)N1 [TRH, L-pyroglutamyl-L-histidyl-L-prolinamide]",effectiveness of low intravenous dose,"[1]; 0.5 mg/minute for twenty minutes, Examples II and III",not found to be effective
same,"dose at which shivering, tachypnoea and sweating began","[1]; human, in vivo, iv",8 mg/min
same,transient increase in pulse rate,"[1]; human, in vivo, iv",10-15 beats per minute
same,"dose at which movement and strength of legs, arms and tongue began to improve, with decreased spasticity","[1]; i.v. infusion increased in seven steps 0.5 to 19 mg/minute, two men",2 to 4 mg/min
same,persistence of benefits and side effects after infusion,[1]; i.v. stepwise infusion,no longer obvious thirty minutes after the infusion ended
same,"response of patient with no spasticity, only lower motor neuron weakness","[1]; i.v., 500 mg total dose",only slight subjective improvement in strength without obvious objective improvement
same,improvement in neurologic deficits from hypofunction of lower and upper motor neurons,"[2]; ALS and other patients, therapeutic amounts (summary of all studies)",moderate to excellent improvement
same,muscle strength in retreated female non-responder of Example II,"[2]; a few months later, evaluated in more detail",slight but definite improvement of muscle strength
same,"effect on mood, alertness, excitation, appetite or sleep","[2]; human, in vivo",no noticeable effect
same,new side effects,"[2]; human, in vivo",very transient taste noted within a few minutes; asthmatic phenomena lasting about five minutes during maximal shivering in two patients with a history of asthma
same,strength and head tremor in one patient with hereditary ALS,"[2]; human, in vivo",improvement in strength and also improvement in a co-existing head tremor
same,"transient shivering, onset and end","[2]; human, in vivo, sc",beginning at three to ten minutes and lasting until thirty to sixty minutes
same,neuromuscular stamina,[2]; s.c.,clearly increased
same,"painful muscle cramps, spasms, spontaneous clonus and stiffness",[2]; s.c.,eliminated or lessened for several days in all patients having them
same,painful spontaneous flexor withdrawal reflexes,[2]; s.c.,remained eliminated for at least twelve days in some instances
same,swallowing,[2]; s.c.,"increased, eliminating choking on food and saliva accumulation in the mouth"
same,"time benefits in strength, cramps, spasticity and clonus often endured undiminished",[2]; s.c.,twenty-four hours
same,time to maximal increased strength,[2]; s.c.,one-and-a-half to two minutes
same,improvement,[2]; s.c. 150 mg once daily or 75 mg twice daily (summary),similarly striking improvement
same,response,"[2]; s.c. 75-150 mg once daily or 75 mg twice daily, forty-one ALS patients, 461 days",beneficial responses
same,stair climbing,"[2]; s.c., many patients",eleven flights of stairs (compared to two with difficulty before TRH)
same,aching of shoulder and hip joints,"[2]; s.c., severe ALS",temporarily reduced or abolished for at least one to three days
same,recovery of lost abilities,"[2]; s.c., some patients",regained abilities that had been lost for six to twelve months
same,"spasticity, clonus and muscle cramps","[2]; s.c., when shivering diminished or one to three hours thereafter",improved from their before-treatment status or completely abolished or absent
same,subcutaneous dose required per body weight,[2]; single injection,≥ 0.71 mg/kg of body weight
same,subcutaneous dose required,"[2]; single injection once, or similar amount twice-a-day",at least 50 mg
same,benefit,[3],markedly benefited
same,arthritic (joint) pain,[4],striking improvement
same,duration of pain improvement,[4],as long as one to four days
same,"partial autorefractory state, onset and duration","[5]; 125-150 mg s.c., first day","began by four to ten minutes and lasted, with fluctuations, two to three hours"
same,time to increased strength,"[5]; 125-150 mg s.c., first day, twenty ALS patients",within one to two minutes
same,effect of second dose at twenty-four hours,[5]; another 125-150 mg s.c.,marked weakness within two minutes
same,drug resistance on repeated treatment,"[5]; i.v. or s.c., as long as eight months",no diminution of beneficial response attributable to drug resistance

# From patent US4608365A, “Treatment of neurologic functions” (priority 1984, dated 1986)
